According to US20210106582A1, “COMPOUNDS AND PHARMACEUTICAL COMPOSITIONS THEREOF FOR USE IN THE TREATMENT OF FIBROTIC DISEASES” (Galapagos NV, priority 2017, published 2021):
“And” between values parts separate entries of the source, which are not always exact repeats. Identical values can stand only once.

Assays:
Assay type in all cases: in vivo
[1] = system: male C57BL/6 mice fed a Methionine and Choline-deficient (MCD) diet; assay: MCD model (methionine and choline deficient diet, NASH); settings: individual animals, 30 mg/kg q.d. p.o., MCD diet 8 wk
Description: The methionine and choline deficient (MCD) diet model is used to produce a severe phenotype of NASH in […] (Santhekadur et al., 2017), and is used to evaluate the compounds of the invention.
At induction, 8 weeks-old male C57BL/6 mice (Janvier Labs, France) maintained at 22° C.±2° C. and humidity at 55%±10%, with a 12-hrs dark/light cycle are fed a standard diet (chow (A04C-10, Safe, France) or a Methionine and Choline-deficient (MCD) diet (EFTD.90262, Ssniff, Soest, Germany) for 8 weeks. All animals have access to filtered tap drinking water.
Four weeks after the induction, the animals are either assigned to a control-group or a test-group.
Test group animals are dosed with the a test compound, i.e. Compound A (CpdA) or Compound B (CpdB), at 30 mg/kg, q.d., p.o. formulated in methylcellulose 0.5%, 1 equivalent HCl. The control groups receives a similar volume of vehicle (10 mL/kg), i.e. the standard diet for control group 1 (C1) and the MCD diet for control group 2 (C2). Mice are randomly assigned to a treatment group according to their body weight in order to ensure a homogenous reparation.
After sacrifice (week 8), the activity of the test compound on the development of NASH is assessed by plasma ALT and AST levels and in liver by histopathological examination of fibrosis and steatosis (Sirius red, Oil Red O), collagen (OH-Pro) and triglycerides content and expression of fibrotic and inflammatory genes.
In addition, the NAS score is determined to further evaluate the compounds with respect to their effect on diet induced NASH. The nonalcoholic fatty liver disease activity scoring (NAS) has been proposed and accepted as a tool to measure changes in NAFLD during therapeutic trials (Brunt et al., 2011; Kleiner et al., 2005).
The NAS score (0-8) is defined as the sum of the steatosis score (0-3), lobular inflammation score (0-3), ballooning score (0-2). A NAS score of ≥5 is indicative of a NASH diagnostic.

[2] = system: male C57BL/6 mice fed CDAHF diet; assay: CDAHFD model (choline-deficient, L-amino acid-defined, high-fat diet); settings: individual animals, CDAHFD 10W, 30 mg/kg q.d. p.o.
[3] = system: female C57BL/6J mice, lung fibrosis induced by radiation; assay: Radiation induced fibrosis mice model; settings: individual animals, irradiated lung, CpdA 30 mg/kg QD PO D1-D14
Description: Pneumonitis and lung fibrosis are the major radiation-induced complications following thoracic radiotherapy, which is one of the major treatment of lung and breast cancers, lymphomas and hematopoietic transplant conditioning.
The objective of this model is to evaluate the effect of a compound of the invention in lung fibrosis induced by radiation in mice. (Bickelhaupt et al., 2017)
7 weeks old (18/22 gr) female C57BL/6J mice from Charles River (France) are maintained on 12 h light/dark cycle at 22° C. with ad libidum access to tap water and food.
The test compounds are dissolved/suspended in appropriate vehicle prior to using and then kept light-free, under agitation at room temperature.
The dose volume administered is 10 mL/kg and the volume is adapted following mean body weight (BW) of the group as follows: 200 μL if mean BW<22.5 g, 250 μL if mean BW≥22.5 g; 300 μL if mean BW>27.5 g.
On day 1 of week 1, the animals are exposed at the thorax to a 17 Gray irradiation dose, under isoflurane anesthesia. […]
Body weight are recorded once a week, and on Day 14, lung function measurement under anesthesia is realized by Flexivent (Devos et al., 2017) for all groups before sacrifice.
At sacrifice on Day 14, the lungs are collected and fixed in 4% formaldehyde for 24 h before embedding in paraffin. […] The anti-collagen I antibody is detected and amplified by ImmPress kit (Vector Laboratories, Cat. No: MP-7401). The immunostained sections are then scanned (Nanozoomer 2.0HT, Hamamatsu) before quantification by image analysis (CaloPix software, TRIBVN Healthcare). Data are expressed as percentage collagen I area per area of lung tissue.
Values for all mice from the same group are averaged. Data are expressed as mean±sem and are compared with a one-way ANOVA followed by Dunnett multiple comparison post hoc test. […]
Manganese superoxide dismutase (MnSOD), located in mitochondria, catalyzes the conversion of superoxide into H2O2, and is a marker of antioxidant response induced by oxidative stress. MnSOD expression is measured immunohistochemically following a protocol adapted from Inghilleri et al. (Inghilleri et al., 2006).
At sacrifice on Day 14, the lungs are collected and fixed in 4% formaldehyde for 24 h before embedding in paraffin. […] The anti-MnSOD antibody is detected by an anti-rabbit biotinylated antibody (Vector Laboratories, Cat. No: BA-1100) amplified by avidin-biotin peroxidase (Vector Laboratories, Cat. No: PK-6100). […] The immunostained sections counterstained with Gill's hematoxylin are then scanned (Nanozoomer 2.0HT, Hamamatsu) before quantification by image analysis (CaloPix software, TRIBVN Healthcare). Data are expressed as percentage MnSOD stained area per area of lung tissue.

## O=c1nc(OC[C@@H]2COCCO2)cc2n1CCc1cc(C#CC3CC3)ccc1-2 [Compound A, 9-Cyclopropylethynyl-2-((S)-1-[1,4]dioxan-2-ylmethoxy)-6,7-dihydro-pyrimido[6,1-a]isoquinolin-4-one]
[1]; NRQ scaled versus disease, Fig 8 Panel B
  TIMP1 NRQ gene expression: 1.0 and 1.1 and 0.4 (3×) and 0.8 and 0.9 and 0.1 and 0.5 and 2.3
[1]; dosing from week 4, Normalised Relative Quantity scaled versus disease, FIG. 8 Panel A
  Col1a NRQ gene expression: 0.3 and 0.8 (2×) and 1.0 and 0.5 and 0.1 and 0.4 and 2.1 and 0.6 and 2.4
[1]; liver, NRQ scaled versus disease, Fig 9 Panel A
  TNfα NRQ gene expression: 0.8 (3×) and 1.4 and 1.0 and 0.7 and 0.5 and 0.1 and 1.5 and 0.4
[1]; liver, NRQ scaled versus disease, Fig 9 Panel B
  CC12 NRQ gene expression: 0.5 (4×) and 1.2 and 0.6 (2×) and 0.7 and 0.2 and 1.0
[1]; total NAS score (0-8), Fig 10
  NAS scoring data: 7.0 (4×) and 6.0 (4×) and 5.0 and 8.0
[2]; Fig 12 panel A
  Col1a1 expression profiles (NRQ-scaled versus Disease-Vehicle): 1.76 and 0.36 and 0.49 and 0.35 and 0.43 and 0.38 and 0.10 and 0.18 and 0.12 and 0.26
[2]; Figure 12 panel B
  TNFα expression profiles (NRQ-scaled versus Disease-Vehicle): 0.53 (2×) and 0.89 and 0.77 and 0.46 and 0.67 and 0.80 and 0.64 and 0.97 and 0.59
[2]; liver, Figure 11
  Fibrosis (Sirius red area %): 0.53% (2×) and 0.89% and 0.77% and 0.46% and 0.67% and 0.80% and 0.64% and 0.97% and 0.59%
[3]; Figure 15
  Type I collagen stained area fraction: 16.2% and 14.7% and 11.0% and 13.0% and 8.7% and 8.1% and 6.5% and 8.9% and 9.1% and 8.6%
[3]; Figure 16
  MnSOD stained area fraction: 0.31% and 0.74% and 0.39% and 0.57% (3×) and 0.71% and 0.66% and 0.99% and 0.26%
